# Counter-ions that a name gives are not always drawn.
# Biological target: human PCSK9 (Homo sapiens, UniProt Q8NBP7)
# Assay: PCSK9 ligand binding assay (TR-FRET): interference with binding of human PCSK9 to human LDLR
# Conditions: for IC50: Human PCSK9 Alexa Fluor 647 / Human LDLR extracellular domain-Europium Kryptate; for Max % inhibition: efficacy (Amax), 100% = 1 uM unlabeled human PCSK9, 0% = DMSO
# Method in brief: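 Read-out was TR-FRET ratio (665 nm over 615 nm, 330 nm excitation) between Alexa Fluor 647-human PCSK9 (16 nM added) and Europium Kryptate-human LDLR ectodomain (4 nM added). Compound and PCSK9 were mixed 30 min before LDLR, then incubated 2 h. Inhibition was normalised to DMSO and unlabelled-PCSK9 controls, giving IC50 and Amax.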
# Chain of human PCSK9 (Q8NBP7 153-692): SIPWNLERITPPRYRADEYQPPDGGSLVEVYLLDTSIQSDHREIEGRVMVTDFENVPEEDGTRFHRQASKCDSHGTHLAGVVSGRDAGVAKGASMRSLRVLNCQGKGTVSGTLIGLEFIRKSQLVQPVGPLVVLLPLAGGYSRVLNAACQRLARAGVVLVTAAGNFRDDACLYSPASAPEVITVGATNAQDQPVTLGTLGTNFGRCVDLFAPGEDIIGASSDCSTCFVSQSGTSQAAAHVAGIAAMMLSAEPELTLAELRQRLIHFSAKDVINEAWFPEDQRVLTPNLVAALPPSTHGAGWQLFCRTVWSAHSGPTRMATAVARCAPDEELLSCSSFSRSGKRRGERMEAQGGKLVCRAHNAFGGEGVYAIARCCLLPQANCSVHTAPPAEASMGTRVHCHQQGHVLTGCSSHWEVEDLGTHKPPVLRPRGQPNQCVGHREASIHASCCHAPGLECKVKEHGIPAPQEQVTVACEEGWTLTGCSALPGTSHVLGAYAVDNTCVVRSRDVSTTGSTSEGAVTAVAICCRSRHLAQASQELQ
# Chain of human PCSK9 (Q8NBP7 31-152 partner limits assumed): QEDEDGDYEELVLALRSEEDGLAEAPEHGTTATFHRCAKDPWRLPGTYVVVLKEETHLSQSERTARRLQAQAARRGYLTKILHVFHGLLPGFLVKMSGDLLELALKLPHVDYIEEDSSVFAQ
Compound,IC50,Max % inhibition
"CNCc1ncc(-c2ccc(Oc3cc(Cl)cc(F)c3CN3C(=O)C[C@@H](CC(F)(F)F)C(=O)N4CCC[C@@](Cc5ccc(Cl)cc5)(C4)N(C)C(=O)[C@H](CO)NC(=O)[C@@H]3C)cc2)n1C [Compound 177, (3S,7S,10S,13R)-6-(4-chloro-2-fluoro-6-(4-(1-methyl-2-((methylamino)methyl)-1H-imidazol-5-yl)phenoxy)benzyl)-13-(4-chlorobenzyl)-10-(hydroxymethyl)-7,12-dimethyl-3-(2,2,2-trifluoroethyl)-1,6,9,12-tetraazabicyclo[11.3.1]heptadecane-2,5,8,11-tetraone trifluoroacetate]",52.7 nM,108.8%
"CN(C)Cc1ncc(-c2ccc(Oc3cc(Cl)ccc3CN3C(=O)C[C@@H](Cc4ccccc4)C(=O)N4CCC[C@@](Cc5ccc(Cl)cc5)(C4)NC(=O)[C@H](CO)NC(=O)[C@@H]3CCN)cc2)n1C [Compound 178, (3R,7S,10S,13R)-7-(2-aminoethyl)-3-benzyl-6-(4-chloro-2-(4-(2-((dimethylamino)methyl)-1-methyl-1H-imidazol-5-yl)phenoxy)benzyl)-13-(4-chlorobenzyl)-10-(hydroxymethyl)-1,6,9,12-tetraazabicyclo[11.3.1]heptadecane-2,5,8,11-tetraone]",2.66 nM,104.3%
COC[C@@H]1NC(=O)[C@H](C)N(Cc2c(F)cc(Cl)cc2Oc2ccc(-c3cnc(CN(C)C)n3C)nc2)C(=O)C[C@@H](CC(F)(F)F)C(=O)N2CCC[C@@](Cc3ccc(Cl)cc3)(C2)NC1=O [Compound 8],0.465 nM,104.7%
"COC[C@@H]1NC(=O)[C@H](C)N(Cc2c(F)cc(Cl)cc2Oc2ccc(-c3cnc(CN(C)C)n3C)cc2)C(=O)C[C@@H](Cc2ccccc2)C(=O)N2CCC[C@@](Cc3ccc(Cl)cc3)(C2)N(C)C1=O [Compound 159, (3R, 7S, 10S, 13R)-3-benzyl-6-(4-chloro-2-(4-(2-((dimethylamino)methyl)-1-methyl-1H-imidazol-5-yl)phenoxy)-6-fluorobenzyl)-13-(4-chlorobenzyl)-10-(methoxymethyl)-7,12-dimethyl-1,6,9,12-tetraazabicyclo[11.3.1]heptadecane-2,5,8,11-tetraone]",1.25 nM,114.0%
"CC[C@@H]1CC(=O)N(Cc2ccc(Cl)cc2Oc2ccc(-c3cnc(CN4CCCC4)n3C)cc2)[C@@H](C)C(=O)N[C@@H](CO)C(=O)N(C)[C@H](Cc2ccc(Cl)cc2)CN(C)C1=O.Cl [Compound 128, (2S, 5S, 8R, 12R)-1-(4-chloro-2-(4-(1-methyl-2-(pyrrolidin-1-ylmethyl)-1H-imidazol-5-yl)phenoxy)benzyl)-8-(4-chlorobenzyl)-12-ethyl-5-(hydroxymethyl)-2,7,10-trimethyl-1,4,7, 10-tetraazacyclotetradecane-3,6,11,114-tetraone]",250 nM,89.8%
"C[C@H]1C(=O)N[C@@H](CO)C(=O)N[C@@]2(Cc3ccc(Cl)cc3)CCCN(C2)C(=O)[C@H](CC2(C)CC2)CC(=O)N1Cc1c(F)cc(Cl)cc1Oc1ccc(-c2cnc(CN(C)C)n2C)cc1 [Compound 144, (3R, 7S, 10S, 13R)-6-(4-chloro-2-(4-(2-((dimethylamino)methyl)-1-methyl-1H-imidazol-5-yl)phenoxy)-6-fluorobenzyl)-13-(4-chlorobenzyl)-10-(hydroxymethyl)-7-methyl-3-((1-methylcyclopropyl)methyl)-1,6,9,12-tetraazabicyclo[11.3.1]heptadecane-2,5,8,11-tetraone]",3.96 nM,113.1%
"COC[C@@H]1NC(=O)[C@H](C)N(Cc2c(F)cc(Cl)cc2Oc2ccc(-c3cnc(CNC(C)(C)C)n3C)cc2)C(=O)C[C@@H](CC(F)(F)F)C(=O)N2CCC[C@@](Cc3ccc(Cl)cc3)(C2)N(C)C1=O [Compound 136, (3S,7S,10S,13R)-6-(2-(4-(2-((tert-Butylamino)methyl)-1-methyl-1H-imidazol-5-yl)phenoxy)-4-chloro-6-fluorobenzyl)-13-(4-chlorobenzyl)-10-(methoxymethyl)-7,12-dimethyl-3-(2,2,2-trifluoroethyl)-1,6,9,12-tetraazabicyclo[11.3.1]heptadecane-2,5,8,11-tetraone]",0.26 nM,113.0%
"C[C@H]1C(=O)N[C@@H](CO)C(=O)N[C@@]2(Cc3ccc(Cl)cc3)CCCN(C2)C(=O)[C@H](Cc2ccccc2)CC(=O)N1Cc1ccc(Cl)cc1Oc1ccc(-c2cnc(CN(C)C)n2C)c(F)c1 [Compound 43, (3R, 7S, 10S, 13R)-3-benzyl-6-(4-chloro-2-(4-(2-((dimethylamino)methyl)-1-methyl-1H-imidazol-5-yl)-3-fluorophenoxy)benzyl)-13-(4-chlorobenzyl)-10-(hydroxymethyl)-7-methyl-1,6,9,12-tetraazabicyclo[11.3.1]heptadecane-2,5,8,11-tetraone]",0.405 nM,110.0%
"COC[C@@H]1NC(=O)[C@H](C)N(Cc2ccc(Cl)cc2Oc2ccc(-c3cnc(CN(C)C)n3C)nc2)C(=O)C[C@@H](Cc2ccccc2)C(=O)N2CCC[C@@](Cc3ccc(Cl)cc3)(C2)NC1=O [Compound 52, (3R, 7S, 10S, 13R)-3-benzyl-6-(4-chloro-2-((6-(2-((dimethylamino)methyl)-1-methyl-1H-imidazol-5-yl)pyridin-3-yl)oxy)benzyl)-13-(4-chlorobenzyl)-10-(methoxymethyl)-7-methyl-1,6,9,12-tetraazabicyclo[11.3.1]heptadecane-2,5,8,11-tetraone]",0.61 nM,112.5%
"C[C@H]1C(=O)N[C@@H](CO)C(=O)N[C@@]2(Cc3ccc(Cl)cc3)CCCN(C2)C(=O)[C@H](Cc2cccc(C(F)(F)F)c2)CC(=O)N1Cc1c(F)cc(Cl)cc1Oc1ccc(-c2cnc(CN(C)C)n2C)cc1 [Compound 80, (3R, 7S, 10S, 13R)-6-(4-chloro-2-(4-(2-((dimethylamino)methyl)-1-methyl-1H-imidazol-5-yl)phenoxy)-6-fluorobenzyl)-13-(4-chlorobenzyl)-10-(hydroxymethyl)-7-methyl-3-(3-(trifluoromethyl)benzyl)-1,6,9,12-tetraazabicyclo[11.3.1]heptadecane-2,5,8,11-tetraone]",0.624 nM,106.6%
"COC[C@@H]1NC(=O)[C@H](C)N(Cc2ccc(Cl)cc2Oc2ccc(-c3cnc(CN(C)C)n3C)nc2)C(=O)C[C@@H](Cc2ccccc2)C(=O)N2CCC[C@@](Cc3ccc(Cl)cc3)(C2)N(C)C1=O [Compound 27, (3R,7S,10S,13R)-3-Benzyl-6-(4-chloro-2-((6-(2-((dimethylamino)methyl)-1-methyl-1H-imidazol-5-yl)pyridin-3-yl)oxy)benzyl)-13-(4-chlorobenzyl)-10-(methoxymethyl)-7,12-dimethyl-1,6,9,12-tetraazabicyclo[11.3.1]heptadecane-2,5,8,11-tetraone]",0.627 nM,111.0%
"C[C@H]1C(=O)N[C@@H](CO)C(=O)N[C@@]2(Cc3ccc(Cl)cc3)CCCN(C2)C(=O)[C@H]([C@@H]2CCc3ccccc32)CC(=O)N1Cc1ccc(Cl)cc1Oc1ccc(-c2cnc(CN(C)C)n2C)cc1.Cl [Compound 84, (3S, 7S, 10S, 13R)-6-(4-chloro-2-(4-(2-((dimethylamino)methyl)-1-methyl-1H-imidazol-5-yl)phenoxy)benzyl)-13-(4-chlorobenzyl)-3-((S)-2,3-dihydro-1H-inden-1-yl)-10-(hydroxymethyl)-7-methyl-1,6,9,12-tetraazabicyclo[11.3.1]heptadecane-2,5,8,11-tetraone]",1.68 nM,101.9%
"C[C@H]1C(=O)N[C@@H](CO)C(=O)N(C)[C@H](Cc2ccc(Cl)cc2)CN(C)C(=O)[C@H](Cc2ccccc2)CC(=O)N1Cc1ccc(Cl)cc1Oc1ccc(-c2cnc(CN3CCCC3)n2C)cc1.Cl [Compound 108, (2S, 5S, 8R, 12R)-12-benzyl-1-(4-chloro-2-(4-(1-methyl-2-(pyrrolidin-1-ylmethyl)-1H-imidazol-5-yl)phenoxy)benzyl)-8-(4-chlorobenzyl)-5-(hydroxymethyl)-2,7,10-trimethyl-1,4,7, 10-tetraazacyclotetradecane-3,6,11,14-tetraone]",9.32 nM,104.6%
"CC(C)[C@@H]1NC(=O)N(Cc2ccc(Cl)cc2Oc2ccc(-c3cnc(CN(C)C)n3C)cc2)[C@@H](C)C(=O)N[C@@H](CO)C(=O)N[C@@]2(Cc3ccc(Cl)cc3)CCCN(C2)C1=O.Cl [Compound 67, (3S, 7S, 10S, 13R)-6-(4-chloro-2-(4-(2-((dimethylamino)methyl)-1-methyl-1H-imidazol-5-yl)phenoxy)benzyl)-13-(4-chlorobenzyl)-10-(hydroxymethyl)-3-isopropyl-7-methyl-1,4,6,9,12-pentaazabicyclo[11.3.1]heptadecane-2,5,8,11-tetraone]",0.334 nM,104.2%
COC[C@@H]1NC(=O)[C@H](C)N(Cc2c(F)cc(Cl)cc2Oc2ccc(-c3cnc(CN(C)C)n3C)nc2)C(=O)C[C@@H](C2CC(F)(F)C2)C(=O)N2CCC[C@@](Cc3ccc(Cl)cc3)(C2)N(C)C1=O [Compound 171],1.03 nM,107.8%
"C[C@H]1C(=O)N[C@@H](CO)C(=O)N(C)[C@@]2(Cc3ccc(Cl)cc3)CCCN(C2)C(=O)[C@H](Cc2ccccn2)CC(=O)N1Cc1c(F)cc(Cl)cc1Oc1ccc(-c2cnc(CN(C)C)n2C)cc1 [Compound 32, (3R,7S,10S,13R)-6-(4-Chloro-2-(4-(2-((dimethylamino)methyl)-1-methyl-1H-imidazol-5-yl)phenoxy)-6-fluorobenzyl)-13-(4-chlorobenzyl)-10-(hydroxymethyl)-7,12-dimethyl-3-(pyridin-2-ylmethyl)-1,6,9,12-tetraazabicyclo[11.3.1]heptadecane-2,5,8,11-tetraone]",0.447 nM,105.8%

# From patent US11813306B2, “Cyclic tetramer compounds as proprotein convertase subtilisin/kexin type 9 (PCSK9) inhibitors for the treatment of metabolic disorders” (NOVARTIS AG, priority 2018, dated 2023)
